# Measured values taken from paper PMC11001709, “Anti-toxoplasma activity and DNA-binding of copper(II) and zinc(II) coordination compounds with 5-nitroimidazole-based ligands” (Journal of Biological Inorganic Chemistry, 2023).
# Where two headings read alike, the source gives them in different places.
# Columns and labels:
# ct-DNA [1] = assay: Competitive displacement of Hoechst 33258 from DNA (fluorescence); format: binding, calf; conditions: Hoechst 33258 1.9 µM, [DNA]b = 30 µM, compound 0-50 µM, 1 h
# Protocol: (§1) For the UV–Vis, fluorescence and circular dichroism assays the concentration of ct-DNA was determined on a Varian Cary 100 Scan spectrophotometer from the absorption at 260 nm and the corresponding molar absorptivity of 6600 M^−1 cm^−1 (nucleobase concentration). The stock solutions of the coordination compounds and the free ligands were prepared in cacodylate/NaCl buffer (1 mM cacodylic acid and 20 mM sodium chloride) at pH 7.25. The final samples contained a DMSO concentration of 0.2%.
# (§2) Emission intensity of the dyes DNA-intercalator ethidium bromide, EB (λexc = 514 nm) and the minor-groove binder Hoechst 33,258 (λexc = 350 nm) was measured on iHR320 HORIBA JOBIN YVON spectrofluorometer. The samples contained 15 µM (in base pairs) of ct-DNA and 75 µM of EB […] in cacodylate/NaCl buffer. The respective dye was incubated for 30 min with ct-DNA to allow its binding to the biomolecule. Subsequently, increasing amounts of coordination compounds (0–50 µM) were added up to a final volume of 2 mL, and the samples were incubated for 1 h at 37 °C. The fluorescence spectra of all samples were recorded at room temperature. The affinity of the compounds for ct-DNA compared to EB was evaluated through the Stern–Volmer quenching constant Ksv, from Eq. 3:3 I0/I=1+Ksvcompound where I0 and I are the emission intensities in absence and the presence of the compound, respectively.
# Competitive binding assays were carried out with Hoechst 33,258. This dye binds to B-DNA, especially those with an AT-rich sequence giving a fluorescent signal at 458 nm when excited at 350 nm. As for to the EB assays, DNA (30 µM) was incubated for 30 min with Hoechst 33,258 (1.9 µM) and increasing amounts of the coordination compounds were subsequently added. In all cases, fluorescence quenching was observed (Fig. 9). As previously, the Ksv constants were determined (Fig. 9c and Table 4). The copper(II) compounds show Ksv values in the […] range (Table 4), indicating a groove binding behavior. For the zinc(II) compounds, the Ksv values are two orders of magnitude lower indicating weaker interactions, must likely of electrostatic nature.
# ct-DNA [2] = assay: Competitive displacement of ethidium bromide from DNA (fluorescence); format: binding, calf; conditions: EB 75 µM, [DNA]b = 30 µM, compound 0-50 µM, 1 h
# Protocol: as §1, §2
# With the aim to corroborate the binding mode of the coordination compounds with DNA competitive displacement assays were carried out by florescence spectroscopy. The fluorescence of ethidium bromide (EB) increases when it intercalates between DNA base pairs, forming an EB-DNA adduct. Competitive binding assays will lead to a decrease of the fluorescence intensity (λexc = 514 nm; λem = 610 nm) if the interacting molecule is capable of displacing EB from the DNA helix. Solutions containing constant concentrations of DNA (30 µM) and EB (75 µM) were incubated for 30 min. Then the coordination compounds to be tested were added in a concentration in the range of 0–50 µM (corresponding to [complex]/[DNA] ratios between = 0 and 3.3), and fluorescence spectra were recorded after 1 h of incubation.
# [3] = test system: RH tachyzoites of Toxoplasma gondii; assay: Viability of extracellular tachyzoites, Sytox Green exclusion test; format: cell-based
# Protocol: RH tachyzoites of Toxoplasma gondii were extracted in PBS solution at pH 7.4 from intraperitoneal fluid of infected CD1 mice on the third day of infection and centrifuged for ten minutes at 260g. Purified parasites were used within 4 h after their isolation.
# The viability of the parasites was determined from staining with Sytox Green® fluorescent dye exclusion test. Purified tachyzoites (1 × 10^6) were incubated for one hour at room temperature with PBS solutions of the coordination compounds or the free ligands at concentrations of 40, 20, 10, 5, and 2.5 µM (0.1% DMSO), in a volume final of 1 mL. After the incubation time, the samples were centrifuged for 10 min at 250g, the medium was removed and 20 µL of Sytox Green® was added after 15 min of incubation for differentiate dead parasites in a Neubauer chamber. The assays were performed in triplicate. The half maximal inhibitory concentration (IC50) was calculated by Boltzmann regression analysis and expressed as mean ± standard error of three replicates. Based on the results the tachyzoites were incubated under the same conditions with the coordination compounds [Cu(onz)2Cl2] and [Cu(onz)2Br2] at their respective IC50 values, Sytox Green® was then added, and they were observed by fluorescence microscopy. Sulfadiazine was used as positive control.
# Viability assays were performed against tachyzoites of Toxoplasma gondii. The RH strain was used to evaluate the effect of different concentrations (namely, 2.5, 5, 10, 20 and 40 µM) of the coordination compounds and the free 5-nitroimidazole against the tachyzoites. The evaluation were performed in PBS buffer (pH 7.4) with Sytox Green® exclusion test, which allows differentiating dead from live tachyzoites, since the intact cell membrane of alive ones is not stained.
# [4] = test system: young adult male ICR mice; assay: Acute toxicity (LD50), intraperitoneal; format: in vivo, mouse; conditions: single dose
# Protocol: For the acute toxicity assays, young adult male ICR mice with an average weight of 28 g and a variation of no more than ± 3 g were used. The handling of the animals was carried out in accordance with the committee for the care and use of laboratory animals (CICUAL) from the Faculty of Chemistry, UNAM.
# A stock solution with a concentration of 25 mg mL^−1 of [Cu(onz)2Cl2] and [Cu(onz)2Br2] was prepared with water for injection. In the case of [Cu(onz)2Br2], 0.1% of DMSO was added. For the pharmacological profile three mice were used for each dose of 1, 10 and 100 mg kg^−1 per compound. For the acute toxicity assays five mice were treated for each dose (10, 50, 75 and 100 mg kg^−1) per compound. […] A detailed clinical observation was made 24 h after administration. The doses were administered intraperitoneally. The data obtained were used to calculate the mean lethal dose using the software Prism 13.0 and SPSS 29.0 [37, 38].
# Based on the anti-toxoplasma results the medial lethal dose (LD50) for [Cu(onz)2Cl2] and [Cu(onz)2Br2] were determined intraperitoneally using doses of 10, 50, 75 and 100 mg kg^−1 per compound in young adult male ICR mice.
# [5] = test system: mouse fibroblast L929 cells; assay: Cytotoxic activity in healthy host cells; format: cell-based
# Protocol: The IC50 values obtained for [Cu(onz)2Cl2] (210.2 μM) and [Cu(onz)2Br2]
# Entamoeba histolytica = conditions: cited from earlier work
# [6] = 1 h, PBS pH 7.4, mean ± standard error of three replicates, read-out: IC50
# [7] = viability vs concentration, read-out: IC50 (Boltzman Fit, Fig. S6)
SMILES,Hoechst 33258 Ksv (ct-DNA [1]) [M⁻¹],Ethidium bromide Ksv (ct-DNA [2]) [M⁻¹],"IC50 [3, 6] [µM]","IC50 [3, 7] [µM]",LD50 [4] [mg/kg],IC50 [5] [µM],MIC (Entamoeba histolytica) [µM]
Cc1ncc([N+](=O)[O-])n1CCCl.Cc1ncc([N+](=O)[O-])n1CCCl.[Br][Cu][Br] [[Cu(cenz)2Br2]],2.1e+06,35000,,,,,
Cc1ncc([N+](=O)[O-])n1CCCl.Cc1ncc([N+](=O)[O-])n1CCCl.[Cl][Cu][Cl] [[Cu(cenz)2Cl2]],1.6e+06,,30.55 ± 0.25,30.6,,,
Cc1n(CC(O)CCl)c([N+](=O)[O-])c[n+]1[Cu-2]([Br])([Br])[n+]1cc([N+](=O)[O-])n(CC(O)CCl)c1C (stereo not drawn) [[Cu(onz)2Br2]],2.5e+06,43000,2.73 ± 0.34,2.73,83.24,180,
Cc1ncc([N+](=O)[O-])n1CC(O)CCl.Cc1ncc([N+](=O)[O-])n1CC(O)CCl.[Cl-].[Cl-].[Cu+2] (stereo not drawn) [[Cu(onz)2Cl2]],1.2e+06,26000,8.49 ± 0.64,8.49,49.35,210,
Cc1ncc([N+](=O)[O-])n1CCCl.Cc1ncc([N+](=O)[O-])n1CCCl.[Br][Zn][Br] [[Zn(cenz)2Br2]],120000,1100,40 ± 0.96,40,,,
Cc1ncc([N+](=O)[O-])n1CC(O)CCl.Cc1ncc([N+](=O)[O-])n1CC(O)CCl.[Cl][Zn][Cl] (stereo not drawn) [[Zn(onz)2Cl2]],38000,4500,,,,,6.25
